Patent publication US20230331792A1, “NEW MULTI-FUNCTIONAL OLIGOPEPTIDES” (ENLITISA (SHANGHAI) PHARMACEUTICAL CO., LTD., priority 2019, published 2023)
Bridge positions count the residues as written; N and C are the ends. Square brackets hold non-standard residues; d marks the D form. Ends that are not written are not given here. I, II: the chains in the order shown. Dopa = N[C@@H](Cc1ccc(O)c(O)c1)C(=O)O; Hyp = O=C(O)[C@@H]1C[C@@H](O)CN1

Key:
[1] = test system: Human Influenza A Virus H1N1; conditions: virus mixed with drug 1 hour, 2-128 μg/mL; Vero cells; viral RNA
C57BL/6 mice = experiment: Air pouch model (carrageenan-induced acute inflammation); format: in vivo; set-up: key to Inflammation score / Edema score: 1 = mild, 2 = moderate, 3 = severe; conditions: dexamethasone 400 μg/mouse
Procedure: Healthy adult male C57BL/6 mice weighing between 20 and 30 g were supplied by Changzhou Cvens Experimental Animal Co. Ltd. Prior to any experiments being conducted, the mice were housed under standardized conditions (at a constant temperature or 22±2° C., with alternating 12-hour periods of light and darkness), and were fed on a standard mouse diet with water, for about a week. The mice were randomly divided into 9 groups as described in Table 4, with 7 mice in each group.
General anaesthesia was induced using intraperitoneal delivery of 3% chloral hydrate (Sinopharm Chemical Reagent Co., Ltd., Shanghai, China); 1 mL/10 g of body weight). The hair of the entire dorsum was shaved and depilated one day before sterile air injection.
Air pouches were produced by subcutaneous injection of sterile air (5 mL) into the intrascapular area of the mice. After three days, another injection of air (3 mL) was performed to maintain the pouches. In order to induce acute inflammation, three days after the second injection, animals received an injection of sterile carrageenan solution (CP Kelco, Taixing, Jiangsu Province, China; 1%, 0.5 mL; produced by adding 0.1 g of carrageenan powder into a beaker containing 10 mL of 0.9% saline solution and stirring). Mice were pre-treated with test samples or vehicle 1 hour before and 23 hours after the carrageenan injection into the subcutaneous air pouch. Animals were sacrificed 24 hours after the carrageenan injection.
Skin biopsies were taken from the air pouches. A part of the biopsy was fixed in formalin (produced by adding ultra-pure water to 50 mL of a 40% formaldehyde solution (Nanchang Rain Dew Experimental Equipment Co., Ltd., Nanchang, […] Provence, China) up to a total volume of 500 mL) and analyzed by histological embedding in paraffin wax, sectioning and staining.
The histological specimens were analyzed, and an inflammation score and an edema score were estimated. The inflammation scores were estimated by observing heamatoxylin and eosin (HE) stained slices under an optical microscope. Scores (between 1 to 3 points) were given according to the perceived inflammation level (e.g. in cases where only a small amount of inflammatory cells scattered in the area: 1 point was given (mild); in cases where many inflammatory cells were observed: 2 points were given (moderate); and, in cases with diffuse infiltration: 3 points were given (severe)). A similar scoring system was employed for edema levels (3 points for most severe and 1 point for mild) after overall observation.
After conducting some preliminary experiments to validate the model, an experiment was conducted in which mice were treated by administering test samples or vehicle in accordance with Table 4 below. Compound A and Compound B were dissolved in saline at concentrations indicated in Table 4 below (L=low dose, M=medium dose, H=high dose).
Compound A and Compound B were synthesized as described in Examples 8 and 7 above, respectively. The peptide powders were stored at −20° C. prior to use. Dexamethasone (Dex) was obtained from Shanghai Aladdin Bio-Chem Technology Co., Ltd., Shanghai, China.

in vivo = conditions: SD, rat
Procedure: The rats were treated by administering test samples.
The rats were anesthetized by 2% isoflurane inhalation. The rats were placed in the supine position, the rectum end stool was extruded and 75% alcohol cotton ball was used to disinfect the anal periphery skin area.
A 2 mL syringe was used to draw back the air bag cavity to ensure that there was no air in the air bag after water filling. The catheter (2-WAY 8Ch/Fr3-5 mm) was inserted into the rats anus at a depth of about 3 cm (2 cm length from the end of the balloon; the tip of the catheter was cut below the position of the urethral catheter tip, and shortened as much as possible while maintaining the integrity of the air cavity. The guide wire was removed, the urethral catheter was sealed with neutral glass glue while ensuring smooth sealing end to reduce the damage to the rectal mucosa).
While the perianal skin was held to fix the catheter and the gavage needle, 1 mL of water was injected with a 2 mL syringe into the airbag cavity in order to expand it, and the needle was then quickly released to observe whether there was gel leakage.
After injection, adhesive tape was wrapped around the tail root to fix the catheter (the catheter was litigated about 3-5 cm from the anus, then cut off after ligation, and an adhesive tape was wrapped around the tail root for fixation. The fixation of the pressure-sensitive adhesive tape is based on the standard of non-looseness of the urinary catheter, which should not be too tight and cause discomfort for animals to bite. The catheter should be fixed by tape twice: the catheter should be knotted the first time, while the remaining catheter should be fixed at the end of the tail the second time. The 3 cm scale on the catheter should be at the anus, and the catheter should not be taken out when the knot is tied). The rats were put back into the cage after administration.
An anal plug was maintained in the rectum for 4 h to extend the retention time of the drug in the animal body. The anal plug dropped within 4 h after the drug was administered, and the approximate time period of the drop was recorded.
Blood samples were processed by coating all centrifuge tubes with EDTA-K2 and storing them either in a refrigerator (2-8° C.) or a cooler filled with ice, protected from light prior to use; the blood that was collected was transferred into the centrifuge tubes and stored in ice box protected from light after having been mixed manually by reversing the tubes at least 5 times. The samples were subsequently centrifuged at 1800 g for 10 minutes at 2 to 8° C. within 2 hours from blood collection. After the centrifugation, the collected plasma samples were transferred into newly labeled centrifuge tubes, aliquoted into two sets, and stored below −70° C. away from light.
AUC, Cmax, Tmax, and any other parameters as needed, were calculated using WinNonlin software. Microsoft Office Excel was used for data statistical analysis, including mean, standard deviation (SD), and coefficient of variation (CV), etc. The difference in pharmacokinetic parameters between the two groups was compared.

person two = experiment: Ulcerative colitis, patient case; format: in vivo, human; conditions: oral 5-aminosalicylic acid for 3 days
Excerpt: person two was diagnosed with an acute attack of ulcerative colitis. […] After this, they were given the same Compound C gel as described in Example 41 above, at the same dose, 3 times over the first two days. The frequent with which they had to go to the toilet reduced to 3 to 4 times a day.

SD rats = experiment: Experimental gastric ulcer model (anhydrous alcohol); format: in vivo; conditions: omeprazole 2 mg/mL, 4 mg/kg oral gavage once per day for 30 days
Procedure: SPF grade SD rats were used in this experiment, with 10 rats in each group. According to an evaluation method of health food for gastric ulcer issued by Chinese State Food and Drug Administration, the protective effect of Compound B on acute gastric ulcers induced by anhydrous alcohol was observed after continuous gavage for 30 days.
Omeprazole enteric-coated capsules (20 mg/capsule; Heilongjiang Norgas Pharmaceutical Co., Ltd., China) were opened and the powder was dissolved in water to make a 2 mg/mL solution. Compound B (see Example 7 above) powder was dissolved in water to make two solutions with concentrations of 0.25 mg/mL and 0.75 mg/mL. Administration volumes were […].
All drugs were administrated as shown in Table 13 by oral gavage for 30 consecutive days, once per day. The rats had free access to water. On the 30th day, rats were fasted for 24 hours after the last drug administration. On the 31st day, 1.0 mL/rat of absolute ethanol was given by gavage to each rat in all of the experimental groups except the control group.
1 hour later, all of the rats were sacrificed and dissected to expose the intact stomach, followed by ligation of the pylorus. 10% formaldehyde solution was administered into the stomach by perfusion and fixed for 20 minutes. The stomach was dissociated after fixation and cut open along the greater curvature. The stomach contents were washed off the lining with saline to reveal the gastric mucosa.
The length and width of gastric mucosal bleeding were measured with a Vernier calliper under a stereo microscope or by the naked eye.

[2] = Pharmacokinetics of montelukast with and without sMAP; conditions: SD, rat, plasma, 0.2 mg

For “I: AKPS[Dopa][Hyp]T[Dopa][Hyp]KKK / II: AKPS[Dopa][Hyp]T[Dopa][Hyp]KK / III: AKPS[Dopa][Hyp]T[Dopa][Hyp]K / IV: AKPS[Dopa][Hyp]T[Dopa][Hyp]K (amide I:11-IV:C, I:12-II:C, II:11-III:C) [Compound C, [(Ala-Lys-Pro-Ser-DOPA-Hyp-Thr-DOPA-Hyp-Lys)2-Lys]2-Lys]”, the “IC50 (virus inhibition rate)” value [1] was greater than 32 µg/mL.
With C[C@@H]1C[C@H]2[C@@H]3CCC4=CC(=O)C=C[C@]4(C)[C@@]3(F)[C@@H](O)C[C@]2(C)[C@@]1(O)C(=O)CO [Dex, Dexamethasone, reference compound] the “Sum of the scores” value (C57BL/6 mice) was 2.14, the Inflammation score (C57BL/6 mice; 1 h before and 23 h after carrageenan, histology, score 1-3) was 0.57 and the Edema score (C57BL/6 mice; histology, score 1-3) was 1.57.
With Nc1ccc(O)c(C(=O)O)c1 [Mesalazine, 5-aminosalicylic acid] the AUC(0-t) (in vivo; female) was 38900 ng·h/mL, the Cmax (in vivo; female) was 13800 ng/mL and the Tmax (in vivo; female) was 1.83 h. It also gave an AUC(0-t) (in vivo; male) of 56100 ng·h/mL, a Cmax (in vivo; male) of 17500 ng/mL and a Tmax (in vivo; male) of 1.67 h. The “symptoms of ulcerative colitis” value (person two) was “symptoms did not change”.
COc1ccc2[nH]c([S+]([O-])Cc3ncc(C)c(OC)c3C)nc2c1 (centres unmarked) [Omeprazole, reference compound] showed a Damage score (SD rats) of 20.
CC(C)(O)c1ccccc1CC[C@@H](SCC1(CC(=O)O)CC1)c1cccc(/C=C/c2ccc3ccc(Cl)cc3n2)c1 [Montelukast, montelukast sodium] gave an AUC(0-t) ([2]; female) of 229 ng·h/mL, a Cmax ([2]; female) of 156 ng/mL and a Tmax ([2]; female) of 0.5 h. It also gave a half-life ([2]; female) of 2.3 h, an AUC(0-t) ([2]; male) of 238 ng·h/mL and a Cmax ([2]; male) of 151 ng/mL. The Tmax ([2]; male) was 0.5 h and the half-life ([2]; male) was 1.8 h.
